Measurements from patent US11000033B2, “Ketone or oxime compound, and herbicide” (NISSAN CHEMICAL CORPORATION, priority 2014, dated 2021).

Columns and labels:
Assay type in all cases: in vivo
soybean = assay: Test Example 4: effect on crop by soil treatment (symbol d); conditions: application herbicide amount 320 g/ha
Method in brief: (§1)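 Steps: fill box with sterilized diluvial soil; sow seed spot-like; cover with ~1.5 cm soil; grow in greenhouse (25° C. to 30° C.).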

Digitaria ciliaris = assay: Test Example 5: herbicidal effect by foliage application, plastic box (symbol F); conditions: 320 g/ha, 3 weeks after application
Method in brief: (§2)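 Visual herbicidal score, taken three weeks post-application, of seedlings sprayed on the foliage with water-diluted emulsion at a predetermined amount; plants were 14 days old, greenhouse-raised at 25° C. to 30° C.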

rice = assay: Test Example 4: effect on crop by soil treatment (symbol b); conditions: application herbicide amount 320 g/ha
Method in brief: as §1

Alopecurus myosuroides [1] = assay: Test Example 5: herbicidal effect by foliage application, plastic box (symbol J); conditions: 320 g/ha, 3 weeks after application
Method in brief: as §2

wheat = assay: Test Example 4: effect on crop by soil treatment (symbol e); conditions: application herbicide amount 320 g/ha
Method in brief: as §1

rapeseed = assay: Test Example 5: effect on crop by foliage application, plastic box (symbol g); conditions: 320 g/ha, 3 weeks after application
Method in brief: (§3)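 A greenhouse held between 25° C. and 30° C. was used to grow plants sown spot-wise, beneath ~1.5 cm of soil, in boxes of sterilized diluvial soil.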

Lolium multiflorum Lam. = assay: Test Example 4: herbicidal effect by soil treatment (symbol K); conditions: application herbicide amount 320 g/ha
Method in brief: (§4)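 Seeds were sown in sterilized diluvial soil, covered with about 1.5 cm of soil, and the soil surface was sprayed with a water-diluted emulsion of the compound at a predetermined rate. Plants grew in a greenhouse at 25° C. to 30° C.; effects were scored visually 3 weeks after application.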

Scirpus juncoides = assay: Test Example 1: herbicidal activity, application before weed generation in submerged conditions (symbol B); conditions: application herbicide amount 320 g/ha
Method in brief: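 Compound emulsion was diluted to a set herbicide amount and applied to the water surface on the sowing day, into submerged (4 cm) alluvial-soil pots sown with mixed weed seeds and transplanted 2.5-leaf rice. Pots were held in a 25–30 °C greenhouse, and weeds were scored 0–5 by herbicidal ratio after 3 weeks.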

Monochoria vaginalis = assay: Test Example 2: herbicidal activity, application during weed generation in submerged conditions (symbol C); conditions: Table 23; application herbicide amount 320 g/ha; grade 0-5 by criteria of Test Example 1
Method in brief: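 Each pot contained alluvial soil under 4 cm of water with seeds of all three weeds sown together. Following growth at 25° C. to 30° C. to the one- to two-leaf stage, the floodwater received diluted emulsion at a predetermined amount; visual assessment followed at 3 weeks.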

corn = assay: Test Example 5: effect on crop by foliage application, plastic box (symbol c); conditions: 320 g/ha, 3 weeks after application
Method in brief: as §3

Alopecurus myosuroides [2] = assay: Test Example 4: herbicidal effect by soil treatment (symbol J); conditions: application herbicide amount 320 g/ha
Method in brief: as §4

[3] = tested on: Echinochloa crus-galli var. crus-galli; assay: Test Example 5: herbicidal effect by foliage application, plastic box (symbol H); conditions: 320 g/ha, 3 weeks after application
Method in brief: as §2

transplanted rice plant = assay: Test Example 1: effect on crop, application before weed generation in submerged conditions (symbol a); conditions: application herbicide amount 320 g/ha
Method in brief: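 Alluvial soil pots flooded to 4 cm water, sown with Echinochloa oryzacola, Scirpus juncoides and Monochoria vaginalis, then transplanted with 2.5 leaf stage rice seedlings; pre-emergence application. Greenhouse 25° C. to 30° C.; scored 0–5 by herbicidal ratio 3 weeks after application.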

| Compound | Effect on crop grade, d: soybean (soybean) | F: Digitaria ciliaris, herbicidal effect grade (Digitaria ciliaris) | Effect on crop grade, b: directly sowed rice plant (rice) | J: Alopecurus myosuroides, herbicidal effect grade (Alopecurus myosuroides [1]) | Effect on crop grade, e: wheat (wheat) | g: rapeseed, effect on crop grade (rapeseed) | Herbicidal effect grade, K: Lolium multiflorum Lam. (Lolium multiflorum Lam.) | Herbicidal effect grade, B: Scirpus juncoides (Scirpus juncoides) | Herbicidal effect grade, C: Monochoria vaginalis (Monochoria vaginalis) | c: corn, effect on crop grade (corn) | Herbicidal effect grade, J: Alopecurus myosuroides (Alopecurus myosuroides [2]) | H: Echinochloa crus-galli var. crus-galli, herbicidal effect grade [3] | Effect grade on crop, a: transplanted rice plant (transplanted rice plant) | F: Digitaria ciliaris, herbicidal effect (criteria of Test Example 1) (Digitaria ciliaris) | J: Alopecurus myosuroides, herbicidal effect (criteria of Test Example 1) (Alopecurus myosuroides [1]) | g: rapeseed, effect on crop (criteria of Test Example 1) (rapeseed) | c: corn, effect on crop (criteria of Test Example 1) (corn) | H: Echinochloa crus-galli var. crus-galli, herbicidal effect (criteria of Test Example 1) [3] | d (soybean) effect on crop grade (soybean) | b (directly sowed rice plant) effect on crop grade (rice) | also measured |
| --- | --- | --- | --- | --- | --- | --- | --- | --- | --- | --- | --- | --- | --- | --- | --- | --- | --- | --- | --- | --- | --- |
| CON=C(CC1CC(O)=C(c2c(C)cc(-n3cc(Cl)cn3)cc2C)C1=O)C(C)C (stereo not drawn) [9-004] | 0 (Herbicidal ratio of 5% or lower (almost no effect)) | 5 (Herbicidal ratio of 90% or more (almost completely withered)) | 0 (Herbicidal ratio of 5% or lower (almost no effect)) | 5 (Herbicidal ratio of 90% or more (almost completely withered)) | 0 (Herbicidal ratio of 5% or lower (almost no effect)) | 3 (Herbicidal ratio of 40% or higher and lower than 70%) | 4 (Herbicidal ratio of 70% or higher and lower than 90%) | 2 (Herbicidal ratio of 20% or higher and lower than 40%) | 0 (Herbicidal ratio of 5% or lower (almost no effect)) | 5 (Herbicidal ratio of 90% or more (almost completely withered)) | 5 (Herbicidal ratio of 90% or more (almost completely withered)) | 5 (Herbicidal ratio of 90% or more (almost completely withered)) | 5 (Herbicidal ratio of 90% or more (almost completely withered)) | – | – | – | – | – | – | – | – |
| CC(=O)CC1CC(O)=C(c2c(C)cc(-c3ccc(OC(F)(F)F)cc3)cc2C)C1=O (stereo not drawn) [7-016] | 0 (Herbicidal ratio of 5% or lower (almost no effect)) | – | 0 (Herbicidal ratio of 5% or lower (almost no effect)) | – | 0 (Herbicidal ratio of 5% or lower (almost no effect)) | – | 0 (Herbicidal ratio of 5% or lower (almost no effect)) | – | – | – | 0 (Herbicidal ratio of 5% or lower (almost no effect)) | – | – | 0 (Herbicidal ratio of 5% or lower (almost no effect)) | 0 (Herbicidal ratio of 5% or lower (almost no effect)) | 0 (Herbicidal ratio of 5% or lower (almost no effect)) | 0 (Herbicidal ratio of 5% or lower (almost no effect)) | 1 (Herbicidal ratio of 5% or higher and lower than 20%) | – | – | – |
| CC(CC1CC(O)=C(c2c(C)cc(C)cc2C)C1=O)=NOCC=CCl (stereo not drawn) [1-056] | – | 5 (Herbicidal ratio of 90% or more (almost completely withered)) | – | 5 (Herbicidal ratio of 90% or more (almost completely withered)) | – | 4 (Herbicidal ratio of 70% or higher and lower than 90%) | – | 5 (Herbicidal ratio of 90% or more (almost completely withered)) | 4 (Herbicidal ratio of 70% or higher and lower than 90%) | 4 (Herbicidal ratio of 70% or higher and lower than 90%) | – | 5 (Herbicidal ratio of 90% or more (almost completely withered)) | 5 (Herbicidal ratio of 90% or more (almost completely withered)) | – | – | – | – | – | 0 (Herbicidal ratio of 5% or lower (almost no effect)) | 5 (Herbicidal ratio of 90% or more (almost completely withered)) | e (wheat) effect on crop grade (wheat): 5 (Herbicidal ratio of 90% or more (almost completely withered)); K (Lolium multiflorum Lam.) herbicidal effect grade (Lolium multiflorum Lam.): 5 (Herbicidal ratio of 90% or more (almost completely withered)); J (Alopecurus myosuroides) herbicidal effect grade (Alopecurus myosuroides [2]): 5 (Herbicidal ratio of 90% or more (almost completely withered)) |
| CC(=O)CC1CC(O)=C(c2c(C)cc(-c3ncccn3)cc2C)C1=O (stereo not drawn) [7-017] | 0 (Herbicidal ratio of 5% or lower (almost no effect)) | – | 0 (Herbicidal ratio of 5% or lower (almost no effect)) | – | 0 (Herbicidal ratio of 5% or lower (almost no effect)) | – | 0 (Herbicidal ratio of 5% or lower (almost no effect)) | – | – | – | 0 (Herbicidal ratio of 5% or lower (almost no effect)) | – | – | 5 (Herbicidal ratio of 90% or more (almost completely withered)) | 2 (Herbicidal ratio of 20% or higher and lower than 40%) | 0 (Herbicidal ratio of 5% or lower (almost no effect)) | 0 (Herbicidal ratio of 5% or lower (almost no effect)) | 5 (Herbicidal ratio of 90% or more (almost completely withered)) | – | – | – |
| CON=C(C)CC1CC(OC(=O)COc2cccc(OC)c2)=C(c2c(C)cc(C)cc2C)C1=O (stereo not drawn) [1-068] | – | 5 (Herbicidal ratio of 90% or more (almost completely withered)) | – | 5 (Herbicidal ratio of 90% or more (almost completely withered)) | – | 4 (Herbicidal ratio of 70% or higher and lower than 90%) | – | 4 (Herbicidal ratio of 70% or higher and lower than 90%) | 3 (Herbicidal ratio of 40% or higher and lower than 70%) | 5 (Herbicidal ratio of 90% or more (almost completely withered)) | – | 5 (Herbicidal ratio of 90% or more (almost completely withered)) | 5 (Herbicidal ratio of 90% or more (almost completely withered)) | – | – | – | – | – | 0 (Herbicidal ratio of 5% or lower (almost no effect)) | 5 (Herbicidal ratio of 90% or more (almost completely withered)) | e (wheat) effect on crop grade (wheat): 4 (Herbicidal ratio of 70% or higher and lower than 90%); K (Lolium multiflorum Lam.) herbicidal effect grade (Lolium multiflorum Lam.): 5 (Herbicidal ratio of 90% or more (almost completely withered)); J (Alopecurus myosuroides) herbicidal effect grade (Alopecurus myosuroides [2]): 5 (Herbicidal ratio of 90% or more (almost completely withered)) |
| CON=C(C)CC1CC(OC(=O)CCC2CCCCC2)=C(c2c(C)cc(C)cc2C)C1=O (stereo not drawn) [1-035] | – | 5 (Herbicidal ratio of 90% or more (almost completely withered)) | – | 5 (Herbicidal ratio of 90% or more (almost completely withered)) | – | 4 (Herbicidal ratio of 70% or higher and lower than 90%) | – | 5 (Herbicidal ratio of 90% or more (almost completely withered)) | 4 (Herbicidal ratio of 70% or higher and lower than 90%) | 4 (Herbicidal ratio of 70% or higher and lower than 90%) | – | 5 (Herbicidal ratio of 90% or more (almost completely withered)) | – | – | – | – | – | – | 0 (Herbicidal ratio of 5% or lower (almost no effect)) | 5 (Herbicidal ratio of 90% or more (almost completely withered)) | e (wheat) effect on crop grade (wheat): 4 (Herbicidal ratio of 70% or higher and lower than 90%); K (Lolium multiflorum Lam.) herbicidal effect grade (Lolium multiflorum Lam.): 5 (Herbicidal ratio of 90% or more (almost completely withered)); J (Alopecurus myosuroides) herbicidal effect grade (Alopecurus myosuroides [2]): 5 (Herbicidal ratio of 90% or more (almost completely withered)) |
| CC(=O)CC1CC(O)=C(c2c(C)cc(Oc3ccccc3)cc2C)C1=O (stereo not drawn) [7-014] | 0 (Herbicidal ratio of 5% or lower (almost no effect)) | – | 4 (Herbicidal ratio of 70% or higher and lower than 90%) | – | 0 (Herbicidal ratio of 5% or lower (almost no effect)) | – | 3 (Herbicidal ratio of 40% or higher and lower than 70%) | – | – | – | 0 (Herbicidal ratio of 5% or lower (almost no effect)) | – | – | 5 (Herbicidal ratio of 90% or more (almost completely withered)) | 0 (Herbicidal ratio of 5% or lower (almost no effect)) | 1 (Herbicidal ratio of 5% or higher and lower than 20%) | 3 (Herbicidal ratio of 40% or higher and lower than 70%) | 5 (Herbicidal ratio of 90% or more (almost completely withered)) | – | – | – |
